Assay results published in patent publication US11524966B1 (Valo Early Discovery, Inc., priority 2017, dated 2022).

Target: T1, USP25 (USP25-His6, Boston Biochem E-546) (Homo sapiens, UniProt Q9UHP3)
T1 construct: His6; purchased Boston Biochem E-546
T1 sequence (Q9UHP3 1-1055): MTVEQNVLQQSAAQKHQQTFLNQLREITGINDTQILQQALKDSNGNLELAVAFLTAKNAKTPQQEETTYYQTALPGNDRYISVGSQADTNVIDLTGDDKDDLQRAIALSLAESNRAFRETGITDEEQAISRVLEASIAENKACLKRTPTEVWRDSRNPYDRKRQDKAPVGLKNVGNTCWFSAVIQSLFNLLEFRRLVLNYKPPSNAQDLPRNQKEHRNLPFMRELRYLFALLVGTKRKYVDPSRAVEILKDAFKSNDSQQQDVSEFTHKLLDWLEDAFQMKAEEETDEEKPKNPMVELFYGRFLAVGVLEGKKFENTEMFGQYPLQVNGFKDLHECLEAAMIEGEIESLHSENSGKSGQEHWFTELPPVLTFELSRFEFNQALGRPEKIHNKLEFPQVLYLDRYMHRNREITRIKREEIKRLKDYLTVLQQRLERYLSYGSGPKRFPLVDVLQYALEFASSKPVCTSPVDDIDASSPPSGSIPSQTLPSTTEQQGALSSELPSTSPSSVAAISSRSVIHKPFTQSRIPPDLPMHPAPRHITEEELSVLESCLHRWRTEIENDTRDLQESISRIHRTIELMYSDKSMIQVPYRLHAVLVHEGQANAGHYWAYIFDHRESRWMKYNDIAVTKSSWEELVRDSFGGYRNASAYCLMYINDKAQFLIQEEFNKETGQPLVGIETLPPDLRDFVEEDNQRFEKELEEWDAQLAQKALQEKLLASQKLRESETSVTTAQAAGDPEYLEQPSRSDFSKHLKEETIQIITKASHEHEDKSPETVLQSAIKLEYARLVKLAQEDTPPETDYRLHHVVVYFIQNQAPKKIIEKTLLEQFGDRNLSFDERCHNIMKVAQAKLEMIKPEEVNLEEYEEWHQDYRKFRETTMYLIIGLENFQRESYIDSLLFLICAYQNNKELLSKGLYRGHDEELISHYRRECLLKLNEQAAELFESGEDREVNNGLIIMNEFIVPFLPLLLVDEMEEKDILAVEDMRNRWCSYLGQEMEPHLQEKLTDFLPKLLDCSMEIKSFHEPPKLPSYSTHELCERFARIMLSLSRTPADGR
Experiment: Ubiquitin-Rhodamine 110 Assay for USP25 Activity, Example A-2
Type: biochemical
Conditions: Ubiquitin-Rhodamine 110 assay, Example A-2; read-out: USP25 A-2 IC50 range
Summary of the method: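 75 pM USP25-His6 was preincubated 30 min with compound (10-point 3-fold series, 25 μM–1.3 nM) in pH 8.0 Tris buffer with BME, BGG and Triton X-100. Then 25 nM Ub-Rh110 (<<Km) was added for 45 min at room temperature, stopped with citric acid, fluorescence read at 485/535 nm, IC50 by 4-parameter fit.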

SMILES	IC50 [nM]
Cc1cc(C)c2c(N)c(C(=O)N[C@H]3COc4cc(N5CC6CCC(C5)N6)c(C#N)c(F)c4C3)sc2n1 [Example 241, 3-amino-N-[(3R)-6-cyano-7-{3,8-diazabicyclo[3.2.1]octan-3-yl}-5-fluoro-3,4-dihydro-2H-1-benzopyran-3-yl]-4,6-dimethylthieno[2,3-b]pyridine-2-carboxamide]	1 to 50
Cc1ccc2c(N)c(C(=O)N[C@H]3COc4cc(N5CC[C@H]6CNCC[C@H]65)ccc4C3)sc2n1 [Example 235, N-[(3R)-7-[(3aS,7aR)-octahydro-1H-pyrrolo[3,2-c]pyridin-1-yl]-3,4-dihydro-2H-1-benzopyran-3-yl]-3-amino-6-methylthieno[2,3-b]pyridine-2-carboxamide]	50 to 200
Cc1cc(C)c2c(N)c(C(=O)N[C@H]3COc4cc(N5CC[C@H]6CNC[C@H]65)ccc4C3)sc2n1 [Example 226, N-[(3R)-7-[(3aS,6aS)-octahydropyrrolo[2,3-c]pyrrol-1-yl]-3,4-dihydro-2H-1-benzopyran-3-yl]-3-amino-4,6-dimethylthieno[2,3-b]pyridine-2-carboxamide]	50 to 200
COC[C@H]1CN(c2ccc3c(c2)CC[C@H](NC(=O)c2sc4nc(C)ccc4c2N)C3)C[C@H]1N [Example 253, 3-amino-N-[(2S)-6-[(3S,4S)-3-amino-4-(methoxymethyl)pyrrolidin-1-yl]-1,2,3,4-tetrahydronaphthalen-2-yl]-6-methylthieno[2,3-b]pyridine-2-carboxamide]	200 to 2000
O=C(N[C@@H]1CCc2cc(N3CC4CCC(C3)N4)cc(F)c2C1)c1cnc2c(c1)[C@H]1C[C@H]1CN2 [Example 194, (6aR,7aS)-N-[(2R)-6-{3,8-diazabicyclo[3.2.1]octan-3-yl}-8-fluoro-1,2,3,4-tetrahydronaphthalen-2-yl]-5H,6H,6aH,7H,7aH-cyclopropa[c]1,8-naphthyridine-2-carboxamide]	200 to 2000
Cc1ccc2c(N)c(C(=O)N[C@H]3COc4cc(N5C[C@H](N)CC[C@H]5C(F)(F)F)ccc4C3)sc2n1 [Example 247, 3-amino-N-[(3R)-7-[(2S,5R)-5-amino-2-(trifluoromethyl)piperidin-1-yl]-3,4-dihydro-2H-1-benzopyran-3-yl]-6-methylthieno[2,3-b]pyridine-2-carboxamide]	50 to 200
Cc1ccc2c(N)c(C(=O)N[C@H]3COc4cc(N5CC[C@@H]6CNC[C@@H]65)cc(F)c4C3)sc2n1 [Example 221, N-[(3R)-7-[(3aR,6aR)-octahydropyrrolo[2,3-c]pyrrol-1-yl]-5-fluoro-3,4-dihydro-2H-1-benzopyran-3-yl]-3-amino-6-methylthieno[2,3-b]pyridine-2-carboxamide]	200 to 2000
CCO[C@@H]1CN(c2ccc3c(n2)CC[C@H](NC(=O)c2sc4nc(C)ccc4c2N)C3)C[C@@H]1N [Example 254, 3-amino-N-[(6S)-2-[(3S,4R)-3-amino-4-ethoxypyrrolidin-1-yl]-5,6,7,8-tetrahydroquinolin-6-yl]-6-methylthieno[2,3-b]pyridine-2-carboxamide]	> 2000
N#Cc1c(N2CC3CCC(C2)N3)cc(F)c2c1CC[C@H](NC(=O)c1cnc3c(c1)[C@H]1C[C@H]1CN3)C2 [Example 196, (6aR,7aS)-N-[(2S)-5-cyano-6-{3,8-diazabicyclo[3.2.1]octan-3-yl}-8-fluoro-1,2,3,4-tetrahydronaphthalen-2-yl]-5H,6H,6aH,7H,7aH-cyclopropa[c]1,8-naphthyridine-2-carboxamide]	> 2000
Cc1ccc2c(N)c(C(=O)N[C@H]3COc4cc(N5CC6CCC[C@@]6(N)C5)ccc4C3)sc2n1 (stereo partly drawn) [Example 248, N-[(3R)-7-[(3aS)-3a-amino-octahydrocyclopenta[c]pyrrol-2-yl]-3,4-dihydro-2H-1-benzopyran-3-yl]-3-amino-6-methylthieno[2,3-b]pyridine-2-carboxamide]	200 to 2000
CO[C@H]1CN(c2ccc3c(n2)CC[C@H](NC(=O)c2sc4nc(C)c(F)cc4c2N)C3)C[C@@H]1N [Example 203, 3-amino-N-[(6S)-2-[(3S,4S)-3-amino-4-methoxypyrrolidin-1-yl]-5,6,7,8-tetrahydroquinolin-6-yl}-5-fluoro-6-methylthieno[2,3-b]pyridine-2-carboxamide]	> 2000
Cc1nc2sc(C(=O)N[C@H]3CCc4nc(N5CCNCC5)ccc4C3)c(N)c2cc1F [Example 204, 3-amino-5-fluoro-6-methyl-N-[(6S)-2-(piperazin-1-yl)-5,6,7,8-tetrahydroquinolin-6-yl]thieno[2,3-b]pyridine-2-carboxamide]	200 to 2000
Cc1ccc2c(N)c(C(=O)N[C@H]3COc4cc(N5C[C@H](N)C6(COC6)C5)ccc4C3)sc2n1 [Example 258, 3-amino-N-[(3R)-7-[(8R)-8-amino-2-oxa-6-azaspiro[3.4]octan-6-yl]-3,4-dihydro-2H-1-benzopyran-3-yl]-6-methylthieno[2,3-b]pyridine-2-carboxamide]	200 to 2000
Cc1ccc2c(N)c(C(=O)N[C@@H]3Cc4ccc(N5CCNCC5)nc4[C@@H](C)C3)sc2n1 (single isomer, unassigned) [Example 205]	> 2000
Cc1ccc2c(N)c(C(=O)N[C@@H]3Cc4ccc(N5CCNCC5)nc4[C@H](C)C3)sc2n1 [Example 207, 3-amino-6-methyl-N-[(6S,8R)-8-methyl-2-(piperazin-1-yl)-5,6,7,8-tetrahydroquinolin-6-yl]thieno[2,3-b]pyridine-2-carboxamide]	> 2000
Cc1ccc2c(N)c(C(=O)N[C@H]3COc4cc(N5CC[C@H]6CCNC[C@H]65)ccc4C3)sc2n1 [Example 224, N-[(3R)-7-[(3aR,7aS)-octahydro-1H-pyrrolo[2,3-c]pyridin-1-yl]-3,4-dihydro-2H-1-benzopyran-3-yl]-3-amino-6-methylthieno[2,3-b]pyridine-2-carboxamide]	50 to 200
Cc1cc(C)c2c(N)c(C(=O)N[C@H]3COc4c(C#N)c(N5CC6CCC(C5)N6)cc(F)c4C3)sc2n1 [Example 230, 3-amino-N-[(3R)-8-cyano-7-{3,8-diazabicyclo[3.2.1]octan-3-yl}-5-fluoro-3,4-dihydro-2H-1-benzopyran-3-yl]-4,6-dimethylthieno[2,3-b]pyridine-2-carboxamide]	200 to 2000
Cc1ccc2c(N)c(C(=O)N[C@H]3COc4cc(N5CC[C@H]6CC[C@H](N)C[C@H]65)ccc4C3)sc2n1 [Example 232, N-[(3R)-7-[(3aR,6S,7aR)-6-amino-octahydro-1H-indol-1-yl]-3,4-dihydro-2H-1-benzopyran-3-yl]-3-amino-6-methylthieno[2,3-b]pyridine-2-carboxamide]	50 to 200
Cc1ccc2c(N)c(C(=O)N[C@H]3COc4cc(N5CCC[C@H]6CNC[C@H]65)ccc4C3)sc2n1 [Example 243, N-[(3R)-7-[(4aS,7aS)-octahydro-1H-pyrrolo[3,4-b]pyridin-1-yl]-3,4-dihydro-2H-1-benzopyran-3-yl]-3-amino-6-methylthieno[2,3-b]pyridine-2-carboxamide]	1 to 50
CCO[C@H]1CN(c2ccc3c(n2)OC[C@H](NC(=O)c2sc4nc(C)cnc4c2N)C3)C[C@@H]1N [Example 182, 7-amino-N-[(3R)-7-[(3S,4S)-3-amino-4-ethoxypyrrolidin-1-yl]-2H,3H,4H-pyrano[2,3-b]pyridin-3-yl]-3-methylthieno[2,3-b]pyrazine-6-carboxamide]	> 2000
Cc1ccc2c(N)c(C(=O)N[C@H]3COc4cc(N5C[C@H]6NCCC(F)(F)[C@H]6C5)ccc4C3)sc2n1 [Example 238, N-[(3R)-7-[(4aS,7aS)-4,4-difluoro-octahydro-1H-pyrrolo[3,4-b]pyridin-6-yl]-3,4-dihydro-2H-1-benzopyran-3-yl]-3-amino-6-methylthieno[2,3-b]pyridine-2-carboxamide]	200 to 2000
O=C(N[C@H]1CCc2cc(N3CC4CCC(C3)N4)cc(F)c2C1)c1cnc2c(c1)[C@H]1C[C@H]1CN2 [Example 192, (6aR,7aS)-N-[(2S)-6-{3,8-diazabicyclo[3.2.1]octan-3-yl}-8-fluoro-1,2,3,4-tetrahydronaphthalen-2-yl]-5H,6H,6aH,7H,7aH-cyclopropa[c]1,8-naphthyridine-2-carboxamide]	50 to 200
